Columns and labels:
[1] = Kinetic solubility evaluation; assay type: physicochemical; details: kinetic from dmso stock, 37° C.
Procedure: The test compounds were dissolved in DMSO to prepare 10 mM stock solutions. 8.71 g of K2HPO4 was added to 500 mL of deionized water to prepare a 100 mM K2HPO4 solution. 2.05 g of potassium dihydrogen phosphate was added to 150 ml of deionized water to prepare a 100 mM potassium dihydrogen phosphate solution. 405 mL of 100 mM K2HPO4 and 95 mL of 100 mM KH2PO4 were mixed, and the mixed solution was adjusted to pH 7.4 by a 100 mM K2HPO4/KH2PO4 solution. 10.41 g of FaSSIF buffer concentrate was added to 240.3 g of deionized water to prepare a buffer solution (fasted-state simulated intestinal fluid, pH=6.5). 4.071 g of FeSSIF buffer concentrate was added to 45.97 g of deionized water to prepare a buffer solution (fed-state simulated intestinal fluid, pH=5.0).
[…] (for PBS) or 37° C. (for others). After the incubation, the solution was transferred to a filter plate. All samples were filtered. 5 μL of the filtrate was added to 5 μL of DMSO, and 490 μl of an aqueous acetonitrile solution containing the internal standard (1:1), and the mixture was mixed evenly. Based on the properties of the compound and its response in mass spectrometry, dilution with an aqueous acetonitrile solution containing the internal standard (1:1) was performed. The dilution factor was varied according to the solubility value and UPLC-MS/MS signal response.

CYP1A2 = target: T1, CYP1A2 (Homo sapiens, UniProt P05177); assay: P450 enzyme inhibition, CYP1A2; assay type: in vitro ADME; details: human liver microsome, substrate Phenacetin
T1 construct: A phosphate buffer solution of liver microsomes was prepared; from tissue; host or cells: human liver microsomes
T1 sequence (P05177 1-516): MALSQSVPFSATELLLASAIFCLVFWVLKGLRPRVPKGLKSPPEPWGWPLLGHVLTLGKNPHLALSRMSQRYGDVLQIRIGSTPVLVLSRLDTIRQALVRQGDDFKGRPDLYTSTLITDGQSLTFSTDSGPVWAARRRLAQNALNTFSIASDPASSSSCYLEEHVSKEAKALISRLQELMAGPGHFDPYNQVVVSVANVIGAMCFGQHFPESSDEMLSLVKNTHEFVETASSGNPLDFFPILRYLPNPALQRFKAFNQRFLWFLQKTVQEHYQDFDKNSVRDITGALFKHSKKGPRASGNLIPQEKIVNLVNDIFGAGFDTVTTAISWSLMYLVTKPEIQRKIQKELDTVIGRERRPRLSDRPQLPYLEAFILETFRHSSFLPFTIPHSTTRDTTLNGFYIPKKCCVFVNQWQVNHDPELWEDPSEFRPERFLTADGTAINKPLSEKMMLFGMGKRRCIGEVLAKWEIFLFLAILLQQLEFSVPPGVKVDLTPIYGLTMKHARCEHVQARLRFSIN
Procedure: (§1) A phosphate buffer solution of liver microsomes was prepared. 169 μL of the phosphate buffer solution of liver microsomes and 1 μL of working solutions of various concentrations of test compounds or positive control compounds were added to a 96-well plate. The culture plate was placed in a water bath and pre-heated at 37° C. for 15 minutes. After the incubation, 10 μL of substrates were added to the culture plate (1 μL of substrates and 9 μL of the K-Mg buffer solution were added to the plate for CYP3A4-T). The incubation mixture was mixed on a rotating mixer for 10 seconds, and then 20 μL of a 10 mM NADPH solution was added to start the reaction at a final concentration of 1 mM. The experiment was repeated twice. At the predetermined time points listed in Table 4, the reaction was quenched by adding 400 μL of the quenching solution (cold ACN containing 500 nM mephetedrine and 10 nM terfenadine). Centrifugation was performed at 3220 g for 50 minutes at 4° C. 100 μl of the supernatant was transferred to a new plate. The supernatant was diluted with 100 μL of pure water. The mixture was mixed evenly, and the sample was analyzed by UPLC-MS/MS.

CYP2C9 = target: T2, CYP2C9 (Homo sapiens, UniProt P11712); assay: P450 enzyme inhibition, CYP2C9; assay type: in vitro ADME; details: human liver microsome, substrate Diclofenac sodium
T2 construct: A phosphate buffer solution of liver microsomes was prepared; from tissue; host or cells: human liver microsomes
T2 sequence (P11712 whole entry): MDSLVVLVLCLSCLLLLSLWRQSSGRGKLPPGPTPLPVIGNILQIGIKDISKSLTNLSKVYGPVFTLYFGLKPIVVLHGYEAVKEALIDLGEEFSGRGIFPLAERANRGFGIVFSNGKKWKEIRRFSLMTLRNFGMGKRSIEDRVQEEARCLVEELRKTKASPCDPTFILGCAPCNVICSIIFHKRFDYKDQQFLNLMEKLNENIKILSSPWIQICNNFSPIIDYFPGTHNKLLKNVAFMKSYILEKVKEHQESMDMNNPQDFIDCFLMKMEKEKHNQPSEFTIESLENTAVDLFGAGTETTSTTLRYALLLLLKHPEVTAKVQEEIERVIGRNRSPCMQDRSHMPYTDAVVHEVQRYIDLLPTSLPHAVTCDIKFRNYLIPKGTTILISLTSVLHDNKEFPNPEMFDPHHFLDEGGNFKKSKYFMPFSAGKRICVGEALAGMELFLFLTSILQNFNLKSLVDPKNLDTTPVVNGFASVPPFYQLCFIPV
Procedure: as §1

CYP2C19 = target: T3, CYP2C19 (Homo sapiens, UniProt P33261); assay: P450 enzyme inhibition, CYP2C19; assay type: in vitro ADME; details: human liver microsome, substrate Mephenytoin
T3 construct: A phosphate buffer solution of liver microsomes was prepared; from tissue; host or cells: human liver microsomes
T3 sequence (P33261 whole entry): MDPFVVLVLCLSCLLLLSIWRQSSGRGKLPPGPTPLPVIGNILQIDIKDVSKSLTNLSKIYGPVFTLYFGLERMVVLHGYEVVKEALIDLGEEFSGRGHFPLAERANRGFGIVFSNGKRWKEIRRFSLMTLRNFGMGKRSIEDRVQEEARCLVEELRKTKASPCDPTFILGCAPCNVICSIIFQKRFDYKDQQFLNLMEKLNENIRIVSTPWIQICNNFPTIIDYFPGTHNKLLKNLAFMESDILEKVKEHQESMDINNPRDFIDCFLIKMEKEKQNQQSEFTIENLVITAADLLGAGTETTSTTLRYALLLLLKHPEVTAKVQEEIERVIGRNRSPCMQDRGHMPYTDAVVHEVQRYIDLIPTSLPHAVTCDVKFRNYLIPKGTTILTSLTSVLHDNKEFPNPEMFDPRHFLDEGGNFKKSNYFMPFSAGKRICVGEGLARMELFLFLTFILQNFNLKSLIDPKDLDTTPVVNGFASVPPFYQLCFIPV
Procedure: as §1

With `O=C(COc1ccc(Cl)c(F)c1)N[C@H]1CC[C@H](c2nnc(N3CC(OC(F)(F)F)C3)o2)CC1` [Compound 6] as the molecule, how does the solubility at 1.5 h ([1]; FaSSIF buffer (fasted-state simulated intestinal fluid), fassif, fasted-state simulated intestinal fluid (pH=6.5)) read?
Its solubility at 1.5 h is greater than 10 µg/mL.

And the solubility at 1.5 h ([1]; FeSSIF buffer (fed-state simulated intestinal fluid), fessif, fed-state simulated intestinal fluid (pH=5.0))?
Its solubility at 1.5 h is greater than 80 µg/mL.

And the IC50 (CYP1A2)?
The IC50 was greater than 10 µM.

What about the IC50 (CYP2C9) of the same molecule?
Its IC50 is greater than 10 µM.

And the IC50 (CYP2C19)?
Its IC50 is greater than 10 µM.

Source: US12612392B2, “Compound, pharmaceutical compositions containing same, synthesis method therefor and use thereof” (SHENZHEN ZHONGGE BIOLOGICAL TECHNOLOGY CO., LTD., priority 2022, dated 2026)
